{"source": "ChEMBL document CHEMBL5532665", "about": "(J Med Chem, 2024)", "note": "The source made the active and inactive calls. No cut-off for these calls is given here."}
{"target": "T1, Mu-type opioid receptor (Homo sapiens, UniProt P35372)", "T1 sequence (P35372 whole entry)": "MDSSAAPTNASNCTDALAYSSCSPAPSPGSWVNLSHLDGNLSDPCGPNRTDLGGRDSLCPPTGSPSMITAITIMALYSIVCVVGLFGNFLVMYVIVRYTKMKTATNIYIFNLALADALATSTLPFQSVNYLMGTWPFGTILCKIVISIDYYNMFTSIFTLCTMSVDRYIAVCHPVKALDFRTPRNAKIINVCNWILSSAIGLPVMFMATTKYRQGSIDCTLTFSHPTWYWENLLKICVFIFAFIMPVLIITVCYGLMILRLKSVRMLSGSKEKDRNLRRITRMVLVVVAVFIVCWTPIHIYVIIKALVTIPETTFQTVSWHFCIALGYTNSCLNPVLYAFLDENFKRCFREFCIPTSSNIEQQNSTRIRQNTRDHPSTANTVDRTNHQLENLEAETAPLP", "assay": "Agonist activity at human MOR expressed in CHO-K1 cells co-expressing G-alpha15 by calcium mobilization assay", "format": "functional, cell-based", "conditions": "cho-k1", "units": {"EC50": "µM"}}
{"smiles": "NC(=O)CNC(=O)[C@@H]1CC(=O)NCCCC[C@@H](NC(=O)[C@@H](N)Cc2ccc(O)cc2)C(=O)NCC(=O)N[C@@H](Cc2ccccc2)C(=O)N1", "EC50": 0.113}
{"target": "T2, Kappa-type opioid receptor (Homo sapiens, UniProt P41145)", "T2 sequence (P41145 whole entry)": "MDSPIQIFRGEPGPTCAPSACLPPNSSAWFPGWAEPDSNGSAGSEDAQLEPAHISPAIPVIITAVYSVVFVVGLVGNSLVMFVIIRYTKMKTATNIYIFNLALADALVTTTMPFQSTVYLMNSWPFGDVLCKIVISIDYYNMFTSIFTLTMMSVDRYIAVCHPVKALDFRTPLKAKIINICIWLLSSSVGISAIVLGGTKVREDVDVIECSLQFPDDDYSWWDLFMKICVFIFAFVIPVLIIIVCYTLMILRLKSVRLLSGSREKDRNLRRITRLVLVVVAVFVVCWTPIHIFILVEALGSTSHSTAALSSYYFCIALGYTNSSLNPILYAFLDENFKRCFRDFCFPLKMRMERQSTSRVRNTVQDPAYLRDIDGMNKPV", "assay": "Agonist activity at human KOR expressed in CHO-K1 cells co-expressing G-alpha15 upto 100 uM by calcium mobilization assay", "format": "functional, cell-based", "conditions": "not given"}
{"smiles": "NC(=O)[C@@H]1CCCN1C(=O)[C@H]1CC(=O)NCCCC[C@@H](NC(=O)[C@@H](N)Cc2ccc(O)cc2)C(=O)NCC(=O)N[C@@H](CCc2ccccc2)C(=O)N1", "Activity": "inactive"}
{"smiles": "NC(=O)[C@@H]1CCCN1C(=O)[C@H]1CC(=O)NCCCC[C@@H](NC(=O)[C@@H](N)Cc2ccc(O)cc2)C(=O)NCC(=O)N(Cc2ccccc2)CC(=O)N1", "Activity": "inactive"}
{"target": "T1, Mu-type opioid receptor", "assay": "Agonist activity at human MOR expressed in CHO-K1 cells co-expressing G-alpha15 by calcium mobilization assay relative to control", "format": "functional, cell-based", "conditions": "filed as agonist", "units": {"Emax": "%"}}
{"smiles": "NC(=O)[C@@H]1CCCN1C(=O)[C@H]1CC(=O)NCCCC[C@@H](NC(=O)[C@@H](N)Cc2ccc(O)cc2)C(=O)NCC(=O)N[C@@H](CCc2ccccc2)C(=O)N1", "Emax": 99.8}
{"smiles": "NC(=O)[C@H]1CC(=O)NCCCC[C@@H](NC(=O)[C@@H](N)Cc2ccc(O)cc2)C(=O)NCC(=O)N[C@@H](Cc2ccccc2)C(=O)N1", "Emax": 103}
{"smiles": "Cc1cc(O)cc(C)c1C[C@H](N)C(=O)N[C@@H]1CCCCNC(=O)C[C@H](C(=O)N2CCC[C@H]2C(N)=O)NC(=O)[C@H](Cc2ccccc2)NC(=O)CNC1=O", "Emax": 101}
{"smiles": "NC(=O)CNC(=O)[C@H]1CC(=O)NCCCC[C@@H](NC(=O)[C@@H](N)Cc2ccc(O)cc2)C(=O)NCC(=O)N[C@@H](Cc2ccccc2)C(=O)N1", "Emax": 91.1}
{"smiles": "CN1CC(=O)N[C@@H](Cc2ccccc2)C(=O)N[C@@H](C(=O)N2CCC[C@H]2C(N)=O)CC(=O)NCCCC[C@@H](NC(=O)[C@@H](N)Cc2ccc(O)cc2)C1=O", "Emax": 118}
{"smiles": "NC(=O)[C@@H]1CCCN1C(=O)[C@H]1CC(=O)NCCCC[C@@H](NC(=O)[C@@H](N)Cc2ccc(O)cc2)C(=O)NCC(=O)N(Cc2ccccc2)CC(=O)N1", "Emax": 113}
{"target": "T2, Kappa-type opioid receptor", "assay": "Agonist activity at human KOR expressed in CHO-K1 cells co-expressing G-alpha15 by calcium mobilization assay", "format": "functional, cell-based", "conditions": "cho-k1", "units": {"EC50": "µM"}}
{"smiles": "NC(=O)CNC(=O)[C@@H]1CC(=O)NCCCC[C@@H](NC(=O)[C@@H](N)Cc2ccc(O)cc2)C(=O)NCC(=O)N[C@@H](Cc2ccccc2)C(=O)N1", "EC50": 9.2}
{"target": "T2, Kappa-type opioid receptor", "assay": "(§1) Agonist activity at human KOR expressed in CHO-K1 cells co-expressing G-alpha15 by calcium mobilization assay relative to control", "format": "functional, cell-based", "conditions": "not given", "units": {"Emax": "%"}}
{"smiles": "Cc1cc(O)cc(C)c1C[C@H](N)C(=O)N[C@@H]1CCCCNC(=O)C[C@H](C(=O)N2CCC[C@H]2C(N)=O)NC(=O)[C@H](Cc2ccccc2)NC(=O)CNC1=O", "Emax": 39.2}
{"target": "T2, Kappa-type opioid receptor", "assay": "as §1", "format": "functional, cell-based", "conditions": "filed as agonist", "units": {"Emax": "%"}}
{"smiles": "NC(=O)[C@H]1CC(=O)NCCCC[C@@H](NC(=O)[C@@H](N)Cc2ccc(O)cc2)C(=O)NCC(=O)N[C@@H](Cc2ccccc2)C(=O)N1", "Emax": 85.5}
{"smiles": "NC(=O)CNC(=O)[C@H]1CC(=O)NCCCC[C@@H](NC(=O)[C@@H](N)Cc2ccc(O)cc2)C(=O)NCC(=O)N[C@@H](Cc2ccccc2)C(=O)N1", "Emax": 48.4}
{"target": "T3, Delta-type opioid receptor (Homo sapiens, UniProt P41143)", "T3 sequence (P41143 whole entry)": "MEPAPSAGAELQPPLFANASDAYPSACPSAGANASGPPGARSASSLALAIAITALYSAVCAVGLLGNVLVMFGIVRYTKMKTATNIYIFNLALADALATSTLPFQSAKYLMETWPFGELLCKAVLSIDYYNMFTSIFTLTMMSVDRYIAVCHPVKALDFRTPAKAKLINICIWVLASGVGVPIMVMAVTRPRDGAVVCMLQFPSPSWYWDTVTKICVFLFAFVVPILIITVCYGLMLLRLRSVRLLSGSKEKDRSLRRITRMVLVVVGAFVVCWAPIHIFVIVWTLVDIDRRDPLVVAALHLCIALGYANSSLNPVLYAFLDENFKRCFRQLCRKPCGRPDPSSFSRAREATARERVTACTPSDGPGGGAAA", "assay": "Agonist activity at human DOR expressed in CHO-K1 cells co-expressing G-alpha15 by calcium mobilization assay", "format": "functional, cell-based", "conditions": "cho-k1", "units": {"EC50": "µM"}}
{"smiles": "NC(=O)CNC(=O)[C@@H]1CC(=O)NCCCC[C@@H](NC(=O)[C@@H](N)Cc2ccc(O)cc2)C(=O)NCC(=O)N[C@@H](Cc2ccccc2)C(=O)N1", "EC50": 0.623}
{"target": "T3, Delta-type opioid receptor", "assay": "Agonist activity at human DOR expressed in CHO-K1 cells co-expressing G-alpha15 by calcium mobilization assay relative to control", "format": "functional, cell-based", "conditions": "filed as agonist", "units": {"Emax": "%"}}
{"smiles": "NC(=O)[C@@H]1CCCN1C(=O)[C@H]1CC(=O)NCCCC[C@@H](NC(=O)[C@@H](N)Cc2ccc(O)cc2)C(=O)NCC(=O)N[C@@H](CCc2ccccc2)C(=O)N1", "Emax": 66.6}
{"smiles": "NC(=O)[C@H]1CC(=O)NCCCC[C@@H](NC(=O)[C@@H](N)Cc2ccc(O)cc2)C(=O)NCC(=O)N[C@@H](Cc2ccccc2)C(=O)N1", "Emax": 125}
{"smiles": "Cc1cc(O)cc(C)c1C[C@H](N)C(=O)N[C@@H]1CCCCNC(=O)C[C@H](C(=O)N2CCC[C@H]2C(N)=O)NC(=O)[C@H](Cc2ccccc2)NC(=O)CNC1=O", "Emax": 116}
{"smiles": "NC(=O)CNC(=O)[C@H]1CC(=O)NCCCC[C@@H](NC(=O)[C@@H](N)Cc2ccc(O)cc2)C(=O)NCC(=O)N[C@@H](Cc2ccccc2)C(=O)N1", "Emax": 104}
{"smiles": "CN1CC(=O)N[C@@H](Cc2ccccc2)C(=O)N[C@@H](C(=O)N2CCC[C@H]2C(N)=O)CC(=O)NCCCC[C@@H](NC(=O)[C@@H](N)Cc2ccc(O)cc2)C1=O", "Emax": 100}
{"smiles": "NC(=O)[C@@H]1CCCN1C(=O)[C@H]1CC(=O)NCCCC[C@@H](NC(=O)[C@@H](N)Cc2ccc(O)cc2)C(=O)NCC(=O)N(Cc2ccccc2)CC(=O)N1", "Emax": 88.9}
